Test results taken from patent US11214803B2, “Modulators of YAP1 expression” (Ionis Pharmaceuticals, Inc., priority 2019, dated 2022).
Strand notation (5' to 3'): a small letter for the sugar, then the base; units joined by * are phosphorothioate-linked, units joined directly phosphodiester-linked; [ ] holds rarer units or linkages, { } end groups; capitals alone tell only the bases. k = constrained ethyl (cEt); [5mC] = 5-methylcytosine; d = 2'-deoxy (DNA)

Each substance was assayed on Yap1 mRNA (assay: Antisense inhibition of human Yap1 in A-431 cells by cEt gapmers, single dose (Example 4, RTS4814)). Details: Table 14; A-431 cells, 5,000 cells per well, free uptake, 2,000 nM, approximately 48 hours; RTS4814; normalized to RIBOGREEN; Yap1 mRNA relative to untreated control; * = targets amplicon region of primer probe set.
Format: cell-based
In short: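 A-431 cells took up 3-10-3 cEt gapmers (16-mer, full phosphorothioate, 5-methylcytosines) by free uptake at 2,000 nM for about 48 h. Yap1 mRNA was quantified by qRT-PCR, normalized to total RNA (RIBOGREEN), and reported as % of untreated control.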
In the case of “1074944 (antisense kA*kA*kA*dA*d[5mC]*d[5mC]*d[5mC]*dT*dT*dT*dG*dG*dT*k[5mC]*kT*k[5mC]) [Compound 1074944]”, the “YAP1 (% UTC)” value is reported as 89 % UTC. “1075936 (k[5mC]*kT*kT*dA*dT*dA*dT*dT*d[5mC]*dT*d[5mC]*dT*d[5mC]*k[5mC]*kG*kA; antisense) [Compound 1075936]” was tested, and the “YAP1 (% UTC)” value was 49 % UTC. With “1074592 (antisense kG*kG*kA*dG*d[5mC]*dA*dA*dG*dT*d[5mC]*dT*dT*dG*kT*kA*kA) [Compound 1074592]” the “YAP1 (% UTC)” value was 23 % UTC. For “1076448 (k[5mC]*kT*kT*dA*dT*dA*dA*dT*dG*d[5mC]*dA*dA*dT*k[5mC]*k[5mC]*kT; antisense) [Compound 1076448]”, the “YAP1 (% UTC)” value was 2 % UTC.

Same assay, conditions: Table 15; A-431 cells, 5,000 cells per well, free uptake, 2,000 nM, approximately 48 hours; RTS4814; normalized to RIBOGREEN; Yap1 mRNA relative to untreated control; * = targets amplicon region of primer probe set
With “1075297 (kG*kT*kT*dA*dA*dT*dT*dA*dT*dA*dA*dG*d[5mC]*kT*kG*kT; antisense) [Compound 1075297]” the “YAP1 (% UTC)” value was 10 % UTC. For “1075649 (k[5mC]*kT*kT*d[5mC]*dA*dA*dT*dA*dA*dA*dG*dT*dG*kG*kG*kA; antisense) [Compound 1075649]”, the “YAP1 (% UTC)” value was 56 % UTC. With “1076193 (kT*kT*kA*dA*dT*dA*d[5mC]*dA*d[5mC]*dA*dG*dG*dT*kT*k[5mC]*k[5mC]; antisense) [Compound 1076193]” the “YAP1 (% UTC)” value was 29 % UTC. In the case of “1074433 (antisense kA*kA*kG*dT*d[5mC]*dT*dG*dA*dG*dT*dA*dT*dT*kT*kA*kG) [Compound 1074433]”, the “YAP1 (% UTC)” value is reported as 5* % UTC.

Same assay, conditions: Table 16; A-431 cells, 5,000 cells per well, free uptake, 2,000 nM, approximately 48 hours; RTS4814; normalized to RIBOGREEN; Yap1 mRNA relative to untreated control cells
“1074946 (antisense k[5mC]*k[5mC]*kA*dA*dA*dA*d[5mC]*d[5mC]*d[5mC]*dT*dT*dT*dG*kG*kT*k[5mC]) [Compound 1074946]” was tested, and the “YAP1 (% UTC)” value was 109 % UTC. For “1075138 (antisense kA*kA*kT*dA*dA*dT*dA*dG*dA*dT*dA*d[5mC]*dT*kG*k[5mC]*k[5mC]) [Compound 1075138]”, the “YAP1 (% UTC)” value was 4 % UTC. In the case of “1076194 (kT*kT*kT*dA*dA*dT*dA*d[5mC]*dA*d[5mC]*dA*dG*dG*kT*kT*k[5mC]; antisense) [Compound 1076194]”, the “YAP1 (% UTC)” value is reported as 22 % UTC. In the case of “1076066 (k[5mC]*kA*kT*dA*dT*dA*dA*dG*dA*dT*dG*dT*dT*kT*kG*k[5mC]; antisense) [Compound 1076066]”, the “YAP1 (% UTC)” value is reported as 8 % UTC. In the case of “1076226 (k[5mC]*kA*kT*dA*dT*dA*dA*dA*d[5mC]*d[5mC]*dT*dT*dG*k[5mC]*kT*kA; antisense) [Compound 1076226]”, the “YAP1 (% UTC)” value is reported as 36 % UTC. With “1074562 (antisense kG*kA*kA*dT*dT*d[5mC]*d[5mC]*dA*dA*dT*d[5mC]*dG*dA*kG*kA*k[5mC]) [Compound 1074562]” the “YAP1 (% UTC)” value was 30 % UTC. In the case of “1076386 (kA*kG*kT*dT*dA*dT*dA*dA*d[5mC]*dA*dG*dT*dG*kT*kA*kA; antisense) [Compound 1076386]”, the “YAP1 (% UTC)” value is reported as 7 % UTC.

Same assay, conditions: Table 17; A-431 cells, 5,000 cells per well, free uptake, 2,000 nM, approximately 48 hours; RTS4814; normalized to RIBOGREEN; Yap1 mRNA relative to untreated control cells
With “1076227 (kA*k[5mC]*kT*dT*dA*dT*dA*dA*dG*dG*d[5mC]*d[5mC]*dA*kG*k[5mC]*kA; antisense) [Compound 1076227]” the “YAP1 (% UTC)” value was 16 % UTC. With “1076451 (k[5mC]*k[5mC]*kT*dT*dA*dA*dG*dA*dA*d[5mC]*dA*dT*dG*kA*kG*kG; antisense) [Compound 1076451]” the “YAP1 (% UTC)” value was 77 % UTC. With “1075427 (antisense kT*kA*kT*dA*dA*dG*dG*d[5mC]*dA*dT*d[5mC]*dT*dT*kG*kG*kA) [Compound 1075427]” the “YAP1 (% UTC)” value was 60 % UTC. In the case of “1075139 (antisense k[5mC]*k[5mC]*k[5mC]*dA*dA*dA*dT*dA*dA*dT*dA*dG*dA*kT*kA*k[5mC]) [Compound 1075139]”, the “YAP1 (% UTC)” value is reported as 65 % UTC. With “1074467 (k[5mC]*kA*k[5mC]*d[5mC]*dG*dA*d[5mC]*d[5mC]*d[5mC]*dT*dG*d[5mC]*d[5mC]*kA*kA*kA; antisense) [Compound 1074467]” the “YAP1 (% UTC)” value was 31 % UTC. With “1074499 (kT*kA*k[5mC]*dA*dA*dT*dA*dA*d[5mC]*d[5mC]*dA*dT*d[5mC]*k[5mC]*k[5mC]*kA; antisense) [Compound 1074499]” the “YAP1 (% UTC)” value was 10 % UTC. For “1075011 (antisense kG*k[5mC]*kA*d[5mC]*dA*dA*dT*dA*dA*dT*d[5mC]*dG*dA*kA*k[5mC]*kA) [Compound 1075011]”, the “YAP1 (% UTC)” value was 44 % UTC. In the case of “1075363 (kA*k[5mC]*kA*d[5mC]*dA*dA*dT*dA*dT*d[5mC]*dA*dA*dG*kT*k[5mC]*k[5mC]; antisense) [Compound 1075363]”, the “YAP1 (% UTC)” value is reported as 25 % UTC. In the case of “1074563 (antisense kT*kG*kA*dA*dT*dT*d[5mC]*d[5mC]*dA*dA*dT*d[5mC]*dG*kA*kG*kA) [Compound 1074563]”, the “YAP1 (% UTC)” value is reported as 4 % UTC. “1074115 (antisense kA*kG*kA*dA*d[5mC]*dT*dT*dT*dT*dT*d[5mC]*d[5mC]*d[5mC]*kT*k[5mC]*k[5mC]) [Compound 1074115]” was tested, and the “YAP1 (% UTC)” value was 33 % UTC. “1076259 (kA*kT*kT*dT*dA*dA*d[5mC]*dT*d[5mC]*d[5mC]*dT*dG*dA*kA*kG*kT; antisense) [Compound 1076259]” was tested, and the “YAP1 (% UTC)” value was 61 % UTC. With “1075683 (k[5mC]*kT*kG*dA*dA*dA*dA*dA*dG*dT*dT*dA*dT*kG*k[5mC]*k[5mC]; antisense) [Compound 1075683]” the “YAP1 (% UTC)” value was 56 % UTC.

Same assay, conditions: Yap1 mRNA remaining as percent of untreated control; 3-10-3 cEt gapmers; A-431 cells; Table 36
In the case of “1076118 (k[5mC]*kG*kT*dA*dA*dA*dT*dT*dG*dA*dG*dG*d[5mC]*k[5mC]*k[5mC]*kA; antisense) [compound 1076118]”, the “YAP1 (% UTC)” value is reported as 45 % UTC. In the case of “1075958 (k[5mC]*kA*kT*dT*dA*dT*dG*dA*d[5mC]*dA*dT*dT*d[5mC]*k[5mC]*k[5mC]*k[5mC]; antisense) [compound 1075958]”, the “YAP1 (% UTC)” value is reported as 12 % UTC. For “1076374 (antisense kA*kT*kA*dA*d[5mC]*dG*dG*dA*dT*dA*dT*dA*d[5mC]*kA*kA*kT) [compound 1076374]”, the “YAP1 (% UTC)” value was 15 % UTC. With “1076502 (k[5mC]*kA*kA*dA*dG*dT*dA*dA*dG*dT*dG*dA*dG*k[5mC]*k[5mC]*k[5mC]; antisense) [compound 1076502]” the “YAP1 (% UTC)” value was 17 % UTC. With “1075350 (antisense kG*kA*kT*dT*dA*dA*dA*dG*d[5mC]*dT*d[5mC]*dA*dT*kT*kG*kA) [compound 1075350]” the “YAP1 (% UTC)” value was 62 % UTC. In the case of “1076310 (kA*k[5mC]*k[5mC]*d[5mC]*dT*dA*dT*dA*d[5mC]*dT*dT*dG*dA*kA*kT*kT; antisense) [compound 1076310]”, the “YAP1 (% UTC)” value is reported as 36 % UTC. With “1075126 (k[5mC]*kT*kT*dA*dA*dA*dT*d[5mC]*dT*dT*dA*dG*d[5mC]*kA*kA*k[5mC]; antisense) [compound 1075126]” the “YAP1 (% UTC)” value was 20 % UTC. “1074774 (k[5mC]*kA*kA*dG*dA*dA*dT*dA*d[5mC]*d[5mC]*d[5mC]*dA*dG*kT*kT*kA; antisense) [compound 1074774]” was tested, and the “YAP1 (% UTC)” value was 16 % UTC. With “1075030 (antisense kT*kT*kA*dA*dT*dA*dT*dT*d[5mC]*dG*dA*d[5mC]*dA*k[5mC]*kT*kG) [compound 1075030]” the “YAP1 (% UTC)” value was 37 % UTC. For “1075734 (kA*kG*kG*d[5mC]*dA*dA*dT*dA*dA*d[5mC]*d[5mC]*dT*d[5mC]*kG*kA*kG; antisense) [compound 1075734]”, the “YAP1 (% UTC)” value was 26 % UTC. With “1075254 (kT*k[5mC]*k[5mC]*d[5mC]*dA*dA*dA*dA*dG*dT*d[5mC]*dA*dT*k[5mC]*kG*k[5mC]; antisense) [compound 1075254]” the “YAP1 (% UTC)” value was 28 % UTC.

Same assay, conditions: Yap1 mRNA remaining as percent of untreated control; 3-10-3 cEt gapmers; A-431 cells; Table 37
With “1075127 (kG*k[5mC]*kT*dA*dA*dA*dT*dT*dA*dT*dG*d[5mC]*dT*kA*kT*kT; antisense) [compound 1075127]” the “YAP1 (% UTC)” value was 79 % UTC. With “1075863 (antisense k[5mC]*k[5mC]*kT*dA*dA*dT*dA*dA*d[5mC]*dT*dT*dG*dT*k[5mC]*kT*kA) [compound 1075863]” the “YAP1 (% UTC)” value was 71 % UTC. For “1074519 (kA*k[5mC]*kT*dA*d[5mC]*dT*dA*dG*dT*d[5mC]*dA*dT*dG*kT*kA*kT; antisense) [compound 1074519]”, the “YAP1 (% UTC)” value was 45 % UTC. For “1075063 (antisense kT*kA*k[5mC]*dG*dG*dA*dA*dG*dG*d[5mC]*d[5mC]*dA*dA*k[5mC]*kT*kG) [compound 1075063]”, the “YAP1 (% UTC)” value was 16 % UTC. In the case of “1075575 (antisense kT*kT*kA*d[5mC]*dA*dA*d[5mC]*dA*d[5mC]*dA*dA*dG*dT*k[5mC]*kT*kA) [compound 1075575]”, the “YAP1 (% UTC)” value is reported as 55 % UTC. With “1074999 (antisense kA*kA*k[5mC]*d[5mC]*dA*dA*d[5mC]*dA*d[5mC]*dG*d[5mC]*dG*dA*k[5mC]*k[5mC]*kT) [compound 1074999]” the “YAP1 (% UTC)” value was 77 % UTC.

Same assay, conditions: table after Table 37, headed TABLE 32 (gapmers targeting SEQ ID NO.: 3); A-431 cells, free uptake, 2,000 nM, approximately 48 hours, RTS4814
With “1074881 (k[5mC]*kT*kA*dA*d[5mC]*dT*d[5mC]*d[5mC]*dT*dG*d[5mC]*d[5mC]*dG*kA*kA*kG; antisense) [compound 1074881]” the “YAP1 (% UTC)” value was 76 % UTC.
